Assays:
crabgrass = experiment: Test A pre-/postemergence greenhouse test; format: in vivo, Digitaria sanguinalis; conditions: for Plant response rating, Crabgrass, Large: 0 to 100 scale where 0 is no effect and 100 is complete control; for Crabgrass, Large plant response rating: 0 to 100 scale
In short: (§1)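 Planting was into mixed loam soil and sand; preemergence treatment followed as a directed soil spray. Concurrently, emerged plants (one- to two-leaf, 2–10 cm) received postemergence applications of identically formulated compound (non-phytotoxic solvent, surfactant). After approximately ten days under greenhouse conditions, injury was judged by eye against untreated plants.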

Goosegrass = experiment: Test C pre-/postemergence test; format: in vivo, Eleusin indica
In short: (§2)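 Compounds in a non-phytotoxic solvent with surfactant applied preemergence to seeded pots and, at the same time, postemergence to plants 2–18 cm tall (1- to 4-leaf stage). Paddy tests: pots flooded to 3 cm, compound applied into the water, depth held throughout.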

redroot pigweed = experiment: Test A pre-/postemergence greenhouse test; format: in vivo, Amaranthus retroflexus; conditions: for Plant response rating, Pigweed: 0 to 100 scale where 0 is no effect and 100 is complete control; for Pigweed plant response rating: 0 to 100 scale
In short: as §1

green foxtail = experiment: Test C pre-/postemergence test; format: in vivo, Setaria viridis
In short: as §2

wheat = experiment: Test C pre-/postemergence test; format: in vivo, Triticum aestivum
In short: as §2

blackgrass = experiment: Test C pre-/postemergence test; format: in vivo, Alopecurus myosuroides
In short: as §2

eastern black nightshade = experiment: Test C pre-/postemergence test; format: in vivo, Solanum ptycanthum
In short: as §2

corn = experiment: Test C pre-/postemergence test; format: in vivo, Zea mays
In short: as §2

yellow nutsedge = experiment: Test C pre-/postemergence test; format: in vivo, Cyperus esculentus
In short: as §2

woolly cupgrass = experiment: Test C pre-/postemergence test; format: in vivo, Eriochloa villosa
In short: as §2

duck salad = experiment: Test C flooded paddy test; format: in vivo, Heteranthera limosa; conditions: Flood
In short: (§3)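 Ratings were visual and made relative to untreated controls after 13 to 15 greenhouse days.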

Italian ryegrass = experiment: Test C pre-/postemergence test; format: in vivo, Lolium multiflorum
In short: as §2

common ragweed = experiment: Test C pre-/postemergence test; format: in vivo, Ambrosia elation
In short: as §2

wild oat = experiment: Test C pre-/postemergence test; format: in vivo, Avena fatua
In short: as §2

[1] = system: common (oilseed) sunflower; experiment: Test C pre-/postemergence test; format: in vivo, Helianthus annuus
In short: as §2

morningglory = experiment: Test A pre-/postemergence greenhouse test; format: in vivo, Ipomoea spp.; conditions: for Plant response rating, Morningglory: 0 to 100 scale where 0 is no effect and 100 is complete control; for Morningglory plant response rating: 0 to 100 scale
In short: as §1

umbrella sedge = experiment: Test C flooded paddy test; format: in vivo, Cyperus difformis; conditions: Flood
In short: as §3

[2] = Postemergence, 500 g ai/ha, 0 is no effect, 100 is complete control
[3] = Preemergence, 125 g ai/ha, 0 no effect, 100 complete control
[4] = 62 g ai/ha, Preemergence, scale 0 to 100
[5] = 125 g ai/ha, preemergence, scale 0 (no effect) to 100 (complete control)
[6] = Preemergence, 31 g ai/ha, scale 0 to 100 (0 no effect, 100 complete control)
[7] = preemergence, 250 g ai/ha, scale 0 (no effect) to 100 (complete control)
[8] = 62 g ai/ha, scale 0 to 100 (0 no effect, 100 complete control)
[9] = 250 g ai/ha, scale 0 to 100, 0 no effect, 100 complete control, 13 to 15 days

With `Cn1nc(C(F)(F)F)c(C[S+]([O-])c2cccc[n+]2[O-])c1OCC(F)F` (stereo not shown) [Compound 75] the “Plant response rating, Crabgrass, Large” value (crabgrass; Postemergence, 125 g ai/ha) was 70, the “Crabgrass, Large plant response rating” value (crabgrass; [2]) was 80 and the “Crabgrass, Large plant response rating” value (crabgrass; [3]) was 70. The “Plant response rating, Crabgrass, Large” value (crabgrass; Preemergence, 500 g ai/ha) was 100, the “Goosegrass plant response rating” value (Goosegrass; [4]) was 85 and the “Goosegrass plant response rating” value (Goosegrass; [5]) was 100. The “Plant response rating, Goosegrass” value (Goosegrass; [6]) was 80, the “Goosegrass plant response rating” value (Goosegrass; [7]) was 100 and the “Plant response rating, Pigweed” value (redroot pigweed; Postemergence, 125 g ai/ha) was 70. For the same molecule, the “Pigweed plant response rating” value (redroot pigweed; [2]) was 100, the “Pigweed plant response rating” value (redroot pigweed; [3]) was 80 and the “Plant response rating, Pigweed” value (redroot pigweed; Preemergence, 500 g ai/ha) was 100. For the same molecule, the “Foxtail, Green plant response rating” value (green foxtail; [4]) was 98, the “Foxtail, Green plant response rating” value (green foxtail; [5]) was 98 and the “Plant response rating, Foxtail, Green” value (green foxtail; [6]) was 80. The “Foxtail, Green plant response rating” value (green foxtail; [7]) was 100, the “Wheat plant response rating” value (wheat; [4]) was 30 and the “Wheat plant response rating” value (wheat; [5]) was 60. For the same molecule, the “Plant response rating, Wheat” value (wheat; [6]) was 0, the “Wheat plant response rating” value (wheat; [7]) was 95 and the “Blackgrass plant response rating” value (blackgrass; [4]) was 100. The “Blackgrass plant response rating” value (blackgrass; [5]) was 100, the “Plant response rating, Blackgrass” value (blackgrass; [6]) was 60 and the “Blackgrass plant response rating” value (blackgrass; [7]) was 100. For the same molecule, the “Nightshade plant response rating” value (eastern black nightshade; [4]) was 98, the “Nightshade plant response rating” value (eastern black nightshade; [5]) was 100 and the “Plant response rating, Nightshade” value (eastern black nightshade; [6]) was 0. The “Nightshade plant response rating” value (eastern black nightshade; [7]) was 100, the “Corn plant response rating” value (corn; [4]) was 60 and the “Corn plant response rating” value (corn; [5]) was 95. The “Plant response rating, Corn” value (corn; [6]) was 60, the “Corn plant response rating” value (corn; [7]) was 98 and the “Nutsedge, Yellow plant response rating” value (yellow nutsedge; [4]) was 50. The “Nutsedge, Yellow plant response rating” value (yellow nutsedge; [5]) was 70, the “Plant response rating, Nutsedge, Yellow” value (yellow nutsedge; [6]) was 0 and the “Nutsedge, Yellow plant response rating” value (yellow nutsedge; [7]) was 100. For the same molecule, the “Cupgrass, Woolly plant response rating” value (woolly cupgrass; [4]) was 85, the “Cupgrass, Woolly plant response rating” value (woolly cupgrass; [5]) was 100 and the “Plant response rating, Cupgrass, Woolly” value (woolly cupgrass; [6]) was 85. The “Cupgrass, Woolly plant response rating” value (woolly cupgrass; [7]) was 100, the “Plant response rating, Ducksalad” value (duck salad; [8]) was 40 and the “Plant response rating, Ducksalad” value (duck salad; [9]) was 85. The “Ryegrass, Italian plant response rating” value (Italian ryegrass; [4]) was 70, the “Ryegrass, Italian plant response rating” value (Italian ryegrass; [5]) was 100 and the “Plant response rating, Ryegrass, Italian” value (Italian ryegrass; [6]) was 0. The “Ryegrass, Italian plant response rating” value (Italian ryegrass; [7]) was 100, the “Ragweed plant response rating” value (common ragweed; [4]) was 80 and the “Ragweed plant response rating” value (common ragweed; [5]) was 85. For the same molecule, the “Plant response rating, Ragweed” value (common ragweed; [6]) was 0, the “Ragweed plant response rating” value (common ragweed; [7]) was 100 and the “Oat, Wild plant response rating” value (wild oat; [4]) was 40. For the same molecule, the “Oat, Wild plant response rating” value (wild oat; [5]) was 70, the “Plant response rating, Oat, Wild” value (wild oat; [6]) was 0 and the “Oat, Wild plant response rating” value (wild oat; [7]) was 80. For the same molecule, the “Sunflower plant response rating” value [1, 4] was 50, the “Sunflower plant response rating” value [1, 5] was 100 and the “Plant response rating, Sunflower” value [1, 6] was 0. The “Sunflower plant response rating” value [1, 7] was 100, the “Plant response rating, Morningglory” value (morningglory; Postemergence, 125 g ai/ha) was 40 and the “Morningglory plant response rating” value (morningglory; [2]) was 90. The “Morningglory plant response rating” value (morningglory; [3]) was 40, the “Plant response rating, Morningglory” value (morningglory; Preemergence, 500 g ai/ha) was 90 and the “Plant response rating, Sedge, Umbrella” value (umbrella sedge; [8]) was 50. The “Plant response rating, Sedge, Umbrella” value (umbrella sedge; [9]) was 85.
